Experimental data from ChEMBL document CHEMBL4477198, “Metabolites from the Fungal Endophyte Aspergillus austroafricanus in Axenic Culture and in Fungal-Bacterial Mixed Cultures” (J Nat Prod, 2016).
pEC50: −log10 of the molar value. Activity calls are given as the source filed them. The calls are words filed in the database; no cut-off is given here.

Assays:
[1] = tested on: Staphylococcus aureus; assay: Antibacterial activity against Staphylococcus aureus ATCC 700699 by broth microdilution method; format: functional
[2] = tested on: Mycobacterium tuberculosis; assay: Antibacterial activity against Mycobacterium tuberculosis H37Rv by broth microdilution method; format: functional
[3] = tested on: L5178Y; assay: Cytotoxicity against mouse L5178Y cells by MTT assay; format: functional, cell-based
[4] = tested on: Bacillus subtilis; assay: Antibacterial activity against Bacillus subtilis 168 trpC2 by broth microdilution method; format: functional

| SMILES | Activity [2] | also measured |
| --- | --- | --- |
| Cc1cc(O)c(Oc2cc(C)cc(O)c2O)c(O)c1 | inactive | MIC [1]: 25 µM |
| CC(C)[C@@H](C)/C=C/[C@@H](C)[C@H]1CC[C@H]2C3=CC=C4C[C@@H](O)CC[C@]4(C)[C@H]3CC[C@]12C [ERGOSTEROL] | inactive | pEC50 [3]: 4.90 |
| COC(=O)c1c(O)ccc2oc3cc(CO)cc(O)c3c(=O)c12 | inactive |  |
| COc1c(O)c(O)c(O)c2oc3c(Oc4c(O)cc(C)c5c(=O)c6c(O)cc(CO)cc6oc45)c(O)cc(C)c3c(=O)c12 | inactive |  |
| COc1c(N2C[C@@H]3CCCN[C@@H]3C2)c(F)cc2c(=O)c(C(=O)O)cn(C3CC3)c12 [MOXIFLOXACIN] |  | MIC [1]: 1.56 mg/L |
| Cc1cc(O)c(O)c(Oc2cc(C)cc(O)c2O)c1 | inactive | MIC [1]: 25 µM |
| Cc1cc(O)cc(Oc2cc(C)cc(O)c2)c1 [DIORCINOL] | inactive | MIC [4]: 34.8 µM |
| O=C(O)c1cn(C2CC2)c2cc(N3CCNCC3)c(F)cc2c1=O [CIPROFLOXACIN] |  | MIC [4]: 0.008 mg/L |
| CC(C)(O)CCC[C@](C)(O)c1ccc(C(=O)O)cc1 | inactive |  |
| C=CC(C)(C)[C@@]12C=C(OC)C(=O)N3/C(=C/c4c[nH]cn4)C(=O)N[C@]31N(OC)c1ccccc12 | inactive |  |
| O=c1cc(CO)c(O)co1 | inactive |  |
| CC1(C)CCC[C@](C)(c2ccc(C(=O)O)cc2O)O1 | inactive |  |
| Cc1cc(O)cc(Oc2cc(C)c(C(N)=O)c(O)c2)c1 | inactive |  |
